T1: Arisaema tortuosum lectin (ATL) (Arisaema tortuosum, UniProt A0A1L6CAS7)
T1 construct: 257-residue precursor, predicted signal peptide 1-23, two domains (DOM1 N26-P132, DOM2 N146-A254) separated by processing; 52 kDa heterotetramer 2 x (A + B)
T1 sequence (A0A1L6CAS7 24-257): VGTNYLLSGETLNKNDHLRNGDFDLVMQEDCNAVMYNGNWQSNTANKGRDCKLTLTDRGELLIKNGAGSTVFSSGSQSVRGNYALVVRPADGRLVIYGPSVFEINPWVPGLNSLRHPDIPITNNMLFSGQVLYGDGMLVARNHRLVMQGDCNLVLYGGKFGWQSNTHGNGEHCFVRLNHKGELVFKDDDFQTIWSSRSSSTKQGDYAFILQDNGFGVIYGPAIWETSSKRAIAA

B1: asialofetuin (natural protein)
chain: IPLDPVAGYKEPACDDPDTEQAALAAVDYINKHLPRGYKHTLNQIDSVKVWPRRPTGEVYDIEIDTLETTCHVLDPTPLANCSVRQQTQHAVEGDCDIHVLKQDGQFSVLFTKCDSSPDSAEDVRKLCPDCPLLAPLNDSRVVHAVEVALATFNAESNGSYLQLVEISRAQFVPLPVSVSVEFAVAATDCIAKEVVDPTKCNLLAEKQYGFCKGSVIQKALGGEDVRVTCTLFQTQPVIPQPQPDGAEAEAPSAVPDAAGPTPSAAGPPVASVVVGPSVVAVPLPLHRAHYDLRHTFSGVASVESSSGEAFHVGKTPIVGQPSIPGGPVRLCPGRIRYFKI
modifications: complex glycoprotein (asialofetuin)

target: T1, Arisaema tortuosum lectin (ATL); assay: CFG glycan microarray v5.[…], biotinylated lectin, fluorescence; assay type: binding; settings: glycan immobilised via spacer; mean over 10, 1.0 and 0.1 µg/ml lectin

| Molecule | Avg. rank^a |
| --- | --- |
| Fuca1-2Galb1-4 GlcNAcb1-2Mana1-6(Fuca1-2Galb1-4GlcNAcb1-2(Fuca1-2Galb1-4GlcNAcb1-4)Mana1-3)Manb1-4GlcNAcb1-4GlcNAcb-Sp12 [compound 446] | 25.9 average rank (from RFU) |
| Fuca1-2Galb1-4(Fuca1-3)GlcNAcb1-2Mana1-6(Fuca1-2Galb1-4(Fuca1-3)GlcNAcb1-2Mana1-3)Manb1-4GlcNAcb1-4(Fuca1-6)GlcNAcb-Sp24 [compound 473] | 20.0 average rank (from RFU) |
| Gala1-4Galb1-3GlcNAcb1-2Mana1-6(Gala1-4Galb1-3GlcNAcb1-2Mana1-3)Manb1-4GlcNAcb1-4GlcNAcb-Sp19 [compound 404] | 70.8 average rank (from RFU) |
| Galb1-3GlcNAcb1-2Mana1-6(Galb1-3GlcNAcb1-2Mana1-3)Manb1-4GlcNAcb1-4(Fuca1-6)GlcNAcb-Sp22 [compound 355] | 24.1 average rank (from RFU) |
| Galb1-3GlcNAcb1-2Mana1-6(Galb1-3GlcNAcb1-2Mana1-3)Manb1-4GlcNAcb1-4GlcNAcb-Sp19 [compound 325] | 57.7 average rank (from RFU) |
| Galb1-4GlcNAcb1-2Mana1-6(Galb1-4GlcNAcb1-4(Galb1-4GlcNAcb1-2)Mana1-3)Manb1-4GlcNAcb1-4GlcNAc-Sp21 [compound 370] | 24.5 average rank (from RFU) |
| Galb1-4GlcNAcb1-2Mana1-6(GlcNAcb1-2Mana1-3)Manb1-4GlcNAcb1-4GlcNAc-Sp12 [compound 399] | 13.8 average rank (from RFU) |
| Galb1-4GlcNAcb1-2Mana1-6(Mana1-3)Manb1-4GlcNAcb1-4GlcNAcb-Sp12 [compound 365] | 59.9 average rank (from RFU) |
| Galb1-4GlcNAcb1-3Galb1-4GlcNAcb1-2Mana1-6(Galb1-4GlcNAcb1-3Galb1-4GlcNAcb1-2Mana1-3)Manb1-4GlcNAcb1-4(Fuca1-6)GlcNAcb-Sp24 [compound 576] | 20.9 average rank (from RFU) |
| Galb1-4GlcNAcb1-6(Galb1-4GlcNAcb1-2)Mana1-6(Galb1-4GlcNAcb1-4(Galb1-4GlcNAcb1-2)Mana1-3)Manb1-4GlcNAcb1-4GlcNAcb-Sp21 [compound 388] | 51.9 average rank (from RFU) |
| GlcNAcb1-2Mana1-6(GlcNAcb1-2Mana1-3)Manb1-4GlcNAcb1-4GlcNAcb-Sp13 [compound 53] | 48.0 average rank (from RFU) |
| GlcNAcb1-2Mana1-6(GlcNAcb1-4(GlcNAcb1-2)Mana1-3)Manb1-4GlcNAcb1-4GlcNAc-Sp21 [compound 389] | 85.5 average rank (from RFU) |
| GlcNAcb1-3Galb1-4GlcNAcb1-2Mana1-6(GlcNAcb1-3Galb1-4GlcNAcb1-2Mana1-3)Manb1-4GlcNAcb1-4(Fuca1-6)GlcNAcb-Sp24 [compound 575] | 20.6 average rank (from RFU) |
| Mana1-2Mana1-6(Mana1-3)Mana1-6(Mana1-2Mana1-2Mana1-3)Manb1-4GlcNAcb1-4GlcNAcb-Sp12 [compound 212] | 35.7 average rank (from RFU) |
| Mana1-6(Galb1-4GlcNAcb1-2Mana1-3)Manb1-4GlcNAcb1-4GlcNAcb-Sp12 [compound 352] | 15.5 average rank (from RFU) |
| Mana1-6(Mana1-2Mana1-3)Mana1-6(Mana1-2Mana1-3)Manb1-4GlcNAcb1-4GlcNAcb-Sp12 [compound 211] | 30.4 average rank (from RFU) |
| Mana1-6(Mana1-3)Mana1-6(Mana1-2Mana1-3)Manb1-4GlcNAcb1-4GlcNAcb-Sp12 [compound 216] | 37.3 average rank (from RFU) |
| Mana1-6(Mana1-3)Mana1-6(Mana1-3)Manb1-4GlcNAcb1-4GlcNAcb-Sp12 [compound 217] | 67.9 average rank (from RFU) |
| Mana1-6(Mana1-3)Manb1-4GlcNAcb1-4(Fuca1-6)GlcNAcb-Sp19 [compound 485] | 62.5 average rank (from RFU) |
| Mana1-6(Mana1-3)Manb1-4GlcNAcb1-4GlcNAcb-Sp13 [compound 51] | 87.6 average rank (from RFU) |

target: Arisaema tortuosum lectin (Arisaema tortuosum); assay: ITC; MicroCal iTC200, 18 injections, data fitted to a one site model; ATL dialysed in PBS; which partner was in the syringe is not stated; settings: not given

| Molecule | stoichiometry N |
| --- | --- |
| B1 | 0.32 |

target: Arisaema tortuosum lectin (Arisaema tortuosum); assay: ITC; MicroCal iTC200, 18 injections, fitted with a one site model; ATL dialysed against PBS; set-up as described in ref. 21; temperature not stated; settings: not given

| Molecule | Ka |
| --- | --- |
| B1 | 116000 M⁻¹ |

— publication PMC6505227, “Exploration of carbohydrate binding behavior and anti-proliferative activities of Arisaema tortuosum lectin” (BMC Molecular Biology, 2019)
